# Assay results published in patent publication US20250213587A1, “ITK INHIBITORS FOR INCREASING TH1 CELL ACTIVITY” (Corvus Pharmaceuticals, Inc., priority 2022, published 2025).
# Legend:
# human kinome = experiment: Human kinome profiling at 1.0 μM; format: biochemical
# ERK phosphorylation = experiment: pERK flow cytometry after CD3/28 crosslinking; format: cell-based; conditions: Homo sapiens, mean of three donors
# Protocol: PBMCs were pelleted (400×g at 4° C. for 5 minutes) and resuspended in RPMI+10% heat-inactivated fetal bovine serum (FBS) at 14.3×10^6 cells/mL; 70 μL (1×10^6 cells) were plated in a 96 well U bottom plate and incubated at 37° C. for 1 hour. […] CD3-biotin and CD28-biotin were prepared together at 10 μg/mL each, which is 10× the final concentration; 10 μL antibodies were added to the cells and incubated at 37° C. for 15 minutes. Avidin was prepared at 500 μg/mL, which is 10× the final concentration; 10 μL avidin were added to the cells and incubated at 37° C. for 5 minutes to induce TCR crosslinking. A total volume of 100 μL cells were transferred to 200 μL warm 2.4% paraformaldehyde (PFA) in deep well blocks. Pipetting was performed using a liquidator 96 to add reagents to the entire plate with uniform timing. Cells were fixed with PFA at 37° C. for 10 minutes. Cells were pelleted (1000× g for 5 minutes), and the plate was aspirated leaving approximately 100 μL residual volume. The plate was then vigorously vortexed for 10 seconds, and 1 mL −20° C. methanol was added to each well. Cells were stored at […] for approximately 1 month. […] Inhibition was measured by construction of a concentration response curve of the Log base 10 transformed values of the molar concentration of inhibitor. […]
# human T cells (PBMC) = experiment: T cell activation, Th1 skewing, cell number and viability; format: cell-based
# Protocol: Fresh PBMCs from healthy human donors were centrifuged and reconstituted at 0.312×10^6 cells/mL in RPMI 1640 medium+10% heat-inactivated FBS+1× penicillin streptomycin and 100,000 cells/well were distributed into 24 well tissue culture plate. Cells were incubated at 37° C. for 1 hour, followed by the addition of CPI 596 or vehicle. The cells were then incubated at 37° C. for 1 hour, followed by the addition of […] anti CD3 and anti CD28 (both eBioscience). Cells were incubated at 37° C. for 6 days, with supplemental media supplied on day 3. On Day 6, the cells were transferred to a 96 deep well plate, washed, and treated with 50 nM phorbol 12-myristate 13-acetate, 1 μg/mL ionomycin, and 1 μg/mL brefeldin A, and then incubated at 37° C. for 4 hours. The cells were then fixed and permeabilized using eBioscience Fox3/transcription factor staining buffer. Cells were treated with Fc block (BioLegend) and then stained with CD3 BV605, CD45RA PerCP-Cy5.5, Tbet PE, IFNγ AF488, IL-4 APC (BioLegend), CD4 PE-Cy7, cPARP AF700 (BD Biosciences), and CD8 Krome Orange (Beckman Coulter). For flow cytometry, 300,000 cells were acquired on Cytoflex (Beckman Coulter). Data were analyzed using Flowjo software. The percentage of CD4^+ T cells that were positive for IFNγ and IL 4 were reported.
# [1] = tested on: imiquimod-induced psoriasis; experiment: Imiquimod-induced model of psoriasis; conditions: in vivo
# ZAP-70 phosphorylation = ZAP-70 phosphorylation in Jurkat cells; format: cell-based, human; conditions: anti-CD3
# Protocol: Jurkat human acute T cell leukemia cell line (ATCC, TIB-152) was cultured in RPMI 1640 medium supplemented with Penicillin-Streptomycin (Gibco) and 10% fetal bovine serum (FBS) at 37° C. and 5% CO2. […] The cell pellet was resuspended in NP40 lysis buffer (Invitrogen) containing protease and phosphatase inhibitors cocktail (Cell Signaling Technology), incubated for 30 minutes on ice, and centrifuged at 15, 000×g for 10 minutes. The lysate supernatant from each condition containing 50 μg of total protein was resolved on an 8% Bis-Tris gel (Invitrogen) under reducing condition and transferred onto a nitrocellulose membrane (Invitrogen) using an iBlot2 gel transfer device. Unless specified otherwise, all reagents described above were purchased from Thermo Fisher Scientific. Membranes were blocked for 1 hour at room temperature and incubated overnight at 4° C. with primary antibodies (1:1000 dilution) in Odyssey blocking buffer (LI-COR) with 0.2% Tween 20. Membranes were washed 4 times (5 min each) in Tris-buffered saline, 0.10% Tween 20 and incubated with IRDye 800CW Anti-Rabbit IgG and IRDye 700CW Anti-Mouse IgG (LI-COR) secondary antibodies (1:20,000 dilution) for 1 hour at room temperature. After washes, membranes were imaged in the LI-COR Odyssey® Fc Imaging System. […]
smiles,measurement,setting,value
C=CC(=O)N1CCCN(C(=O)c2cc(Sc3cnc(NC(=O)C4CC4)s3)c(C)cc2OC)C[C@H]1C [CPI-818],number of kinases inhibited ≥65%,human kinome,eight
same,IC50,ERK phosphorylation,39 nM
same,total T cell proliferation,human T cells (PBMC); 10 μM,abrogates total T cell proliferation
same,total number of cells and cell viability,human T cells (PBMC); ≥1 μM / high concentrations,reduced the total number of cells while maintaining cell viability
same,dermal inflammation,[1],significantly reduced
same,skin thickening,[1],significantly reduced
same,phosphorylation of ZAP-70,ZAP-70 phosphorylation,but not ZAP-70
